Tests used:
Format in all cases: physicochemical
[1] = Hygroscicity by Dynamic Vapor Sorption (DVS) at 25° C.; conditions: for Desorp. (%) Cycle 1 / Desorp. (%) Cycle 2 / Sorp. (%) Cycle 1 / Sorp. (%) Cycle 2 / Hygroscopicity / Water uptake: DVS 25° C.; for XRPD after DVS test: 25° C.; for Water uptake: up to 95% RH
Protocol: Hygroscopicity was investigated by DVS at 25° C., using the following method: […]

[2] = Polymorph screening by equilibration in solvents at 25° C. (XRPD)
[3] = Bulk stability, accelerated storage for one week (HPLC, XRPD); conditions: for Stability after exposure to the three conditions: 25° C./92% RH open, 40° C./75% RH open, 60° C. tight container; for Stability after exposure to the three conditions / Degradation product increase: one week; for Bulk (XRPD) / Color / Purity, Bulk (HPLC): 1 week; for Initial HPLC purity: before storage
Protocol: Bulk stability: Accelerated stability experiments were conducted at 25° C./92% RH and 40° C./75% RH in an open container, 60° C. in a tight container for one week.
Samples were characterized by XRPD and HPLC and inspected for color change.
Accelerated stability experiments were conducted at 25° C./92% RH in an open container, at 40° C./75% RH in an open container, and at 60° C. in a tight container for one week.

[4] = Solubility in buffers, water and simulated vaginal fluid at 37° C.
Protocol: About 4 mg of Compound I Pattern 1 was added into 2 mL of buffer solution.
(§1) Solubility was tested in five media, pH 3.0 citrate buffer, pH 4.5 acetate buffer, pH 6.8 phosphate buffer, water, simulated vaginal fluid (pH 4.2) at 37° C. for 0.5 h and 2 h.
The salt amount used is equivalent to 10 mg anhydrous free base. […] The obtained clear solutions were analyzed by pH meter for pH, and solubility was determined by observation.
as §1

[5] = BS1: solid state, 25° C./92% RH, open container
[6] = BS2: solid state, 40° C./75% RH, open container
[7] = BS3: solid state, 60° C., tight container
[8] = ES1: pH 3.0, 100 mM citrate buffer
[9] = ES2: pH 4.5, 50 mM acetate buffer
[10] = ES3: pH 6.8, 50 mM phosphate buffer
[11] = ES5: Simulated vaginal fluid (pH adjusted by 0.1N NaOH)

With CCOC(=O)C(C)NP(=O)(COCCn1cnc2c(OC)nc(N)nc21)OCc1ccccc1.O=C(O)C=CC(=O)O (stereo not shown) [Compound II Pattern 1] the “Desorp. (%) Cycle 1” value ([1]; 0% RH) was 0.03%, the “Desorp. (%) Cycle 2” value ([1]; 0% RH) was 0.03% and the “Sorp. (%) Cycle 1” value ([1]; 0% RH) was 0.03%. The “Sorp. (%) Cycle 2” value ([1]; 0% RH) was 0.03%, the “Desorp. (%) Cycle 1” value ([1]; 10% RH) was 0.05% and the “Desorp. (%) Cycle 2” value ([1]; 10% RH) was 0.05%. The “Sorp. (%) Cycle 1” value ([1]; 10% RH) was 0.04%, the “Sorp. (%) Cycle 2” value ([1]; 10% RH) was 0.04% and the “Desorp. (%) Cycle 1” value ([1]; 20% RH) was 0.08%. The “Desorp. (%) Cycle 2” value ([1]; 20% RH) was 0.07%, the “Sorp. (%) Cycle 1” value ([1]; 20% RH) was 0.06% and the “Sorp. (%) Cycle 2” value ([1]; 20% RH) was 0.06%. The “Desorp. (%) Cycle 1” value ([1]; 30% RH) was 0.10%, the “Desorp. (%) Cycle 2” value ([1]; 30% RH) was 0.08% and the “Sorp. (%) Cycle 1” value ([1]; 30% RH) was 0.08%. The “Sorp. (%) Cycle 2” value ([1]; 30% RH) was 0.07%, the “Desorp. (%) Cycle 1” value ([1]; 40% RH) was 0.17% and the “Desorp. (%) Cycle 2” value ([1]; 40% RH) was 0.10%. For the same compound, the “Sorp. (%) Cycle 1” value ([1]; 40% RH) was 0.10%, the “Sorp. (%) Cycle 2” value ([1]; 40% RH) was 0.09% and the “XRPD after DVS test” value ([1]; 40-0-95-0-40% RH) was “No form change”. The “Desorp. (%) Cycle 2” value ([1]; 50% RH) was 0.12%, the “Sorp. (%) Cycle 1” value ([1]; 50% RH) was 0.12% and the “Desorp. (%) Cycle 2” value ([1]; 60% RH) was 0.14%. For the same compound, the “Sorp. (%) Cycle 1” value ([1]; 60% RH) was 0.13%, the “Desorp. (%) Cycle 2” value ([1]; 70% RH) was 0.18% and the “Sorp. (%) Cycle 1” value ([1]; 70% RH) was 0.16%. The “Desorp. (%) Cycle 2” value ([1]; 80% RH) was 0.21%, the “Sorp. (%) Cycle 1” value ([1]; 80% RH) was 0.19% and the “Desorp. (%) Cycle 2” value ([1]; 90% RH) was 0.24%. For the same compound, the “Sorp. (%) Cycle 1” value ([1]; 90% RH) was 0.23%, the “Desorp. (%) Cycle 2” value ([1]; 95% RH) was 0.24% and the “Sorp. (%) Cycle 1” value ([1]; 95% RH) was 0.24%. The “Hygroscopicity” value [1] was “slightly hygroscopic”, the “XRPD after DVS test” value ([1]; cycle 40-0-95-0-40% RH) was “No form change” and the Water uptake [1] was “about 0.2%”. For the same compound, the “Crystal modification after 1 week equilibration (XRPD)” value (shortened to “Crystal modification”) ([2]; PS1: IPA) was “Compound II Pattern 1”, the “Crystal modification” value ([2]; PS2: Heptanes) was “Compound II Pattern 1” and the “Crystal modification” value ([2]; PS3: Water) was “Compound II Pattern 1”. For the same compound, the “Crystal modification” value ([2]; PS4: ACN) was “Compound II Pattern 2”, the “Crystal modification” value ([2]; PS5: MEK) was “Compound II Pattern 3” and the “Crystal modification” value ([2]; PS6: Acetone) was “Compound II Pattern 1”. The “Crystal modification” value ([2]; PS7: IPA/heptanes (3/10, v/v)) was “Compound II Pattern 1”, the “Crystal modification” value ([2]; PS8: water/ACN (2.9/97.1, v/v)) was “Compound II Pattern 2” and the “Crystal modification” value ([2]; PS9: IPA/MTBE (1/3, v/v)) was “Compound II Pattern 1”. The “Crystal modification” value ([2]; PS10: EA/toluene (1/3, v/v)) was “Compound II Pattern 1”, the “Stability after exposure to the three conditions” value [3] was “good physical and chemical stability” and the “Bulk (XRPD)” value [3, 5] was “No form change”. The Color [3, 5] was “No change”, the “Purity, Bulk (HPLC)” value [3, 5] was 99.5% and the “Bulk (XRPD)” value [3, 6] was “No form change”. The Color [3, 6] was “No change”, the “Purity, Bulk (HPLC)” value [3, 6] was 99.4% and the “Bulk (XRPD)” value [3, 7] was “No form change”. The Color [3, 7] was “No change”, the “Purity, Bulk (HPLC)” value [3, 7] was 99.7% and the “Initial HPLC purity” value [3] was 99.7%. The “Solubility 0.5 hours” value [4, 8] was >2000 µg/mL, the “Solubility 2 hours” value [4, 8] was > 2000 µg/mL and the “pH of solution, 2 hours” value [4, 8] was 2.85. The “Solubility 0.5 hours” value [4, 9] was >2000 µg/mL, the “Solubility 2 hours” value [4, 9] was > 2000 µg/mL and the “pH of solution, 2 hours” value [4, 9] was 4.2. For the same compound, the “Solubility 0.5 hours” value [4, 10] was >2000 µg/mL, the “Solubility 2 hours” value [4, 10] was > 2000 µg/mL and the “pH of solution, 2 hours” value [4, 10] was 6.47. For the same compound, the “Solubility 0.5 hours” value ([4]; ES4: Water) was >2000 µg/mL, the “Solubility 2 hours” value ([4]; ES4: Water) was > 2000 µg/mL and the “pH of solution, 2 hours” value ([4]; ES4: Water) was 2.87. The “Solubility 0.5 hours” value [4, 11] was >2000 µg/mL, the “Solubility 2 hours” value [4, 11] was > 2000 µg/mL and the “pH of solution, 2 hours” value [4, 11] was 5.79.
In the case of CCOC(=O)C(C)NP(=O)(COCCn1cnc2c(OC)nc(N)nc21)OCc1ccccc1.O=C(O)C=CC(=O)O (stereo not shown) [Compound III Pattern 2], the “Desorp. (%) Cycle 1” value ([1]; 0% RH) is reported as 0.00%, the “Desorp. (%) Cycle 2” value ([1]; 0% RH) is reported as 0.00% and the “Sorp. (%) Cycle 1” value ([1]; 0% RH) is reported as 0.00%. For the same compound, the “Sorp. (%) Cycle 2” value ([1]; 0% RH) was 0.00%, the “Desorp. (%) Cycle 1” value ([1]; 10% RH) was 0.07% and the “Desorp. (%) Cycle 2” value ([1]; 10% RH) was 0.07%. The “Sorp. (%) Cycle 1” value ([1]; 10% RH) was 0.07%, the “Sorp. (%) Cycle 2” value ([1]; 10% RH) was 0.07% and the “Desorp. (%) Cycle 1” value ([1]; 20% RH) was 0.15%. The “Desorp. (%) Cycle 2” value ([1]; 20% RH) was 0.15%, the “Sorp. (%) Cycle 1” value ([1]; 20% RH) was 0.14% and the “Sorp. (%) Cycle 2” value ([1]; 20% RH) was 0.14%. The “Desorp. (%) Cycle 1” value ([1]; 30% RH) was 0.23%, the “Desorp. (%) Cycle 2” value ([1]; 30% RH) was 0.23% and the “Sorp. (%) Cycle 1” value ([1]; 30% RH) was 0.22%. For the same compound, the “Sorp. (%) Cycle 2” value ([1]; 30% RH) was 0.22%, the “Desorp. (%) Cycle 1” value ([1]; 40% RH) was 0.30% and the “Desorp. (%) Cycle 2” value ([1]; 40% RH) was 0.32%. The “Sorp. (%) Cycle 1” value ([1]; 40% RH) was 0.29%, the “Sorp. (%) Cycle 2” value ([1]; 40% RH) was 0.30% and the “XRPD after DVS test” value ([1]; 40-0-95-0-40% RH) was “No form change”. For the same compound, the “Desorp. (%) Cycle 2” value ([1]; 50% RH) was 0.41%, the “Sorp. (%) Cycle 1” value ([1]; 50% RH) was 0.39% and the “Desorp. (%) Cycle 2” value ([1]; 60% RH) was 0.52%. The “Sorp. (%) Cycle 1” value ([1]; 60% RH) was 0.47%, the “Desorp. (%) Cycle 2” value ([1]; 70% RH) was 0.67% and the “Sorp. (%) Cycle 1” value ([1]; 70% RH) was 0.59%. The “Desorp. (%) Cycle 2” value ([1]; 80% RH) was 0.81%, the “Sorp. (%) Cycle 1” value ([1]; 80% RH) was 0.71% and the “Desorp. (%) Cycle 2” value ([1]; 90% RH) was 0.97%. For the same compound, the “Sorp. (%) Cycle 1” value ([1]; 90% RH) was 0.92%, the “Desorp. (%) Cycle 2” value ([1]; 95% RH) was 1.01% and the “Sorp. (%) Cycle 1” value ([1]; 95% RH) was 1.01%. The “Hygroscopicity” value [1] was “slightly hygroscopic”, the “XRPD after DVS test” value ([1]; cycle 40-0-95-0-40% RH) was “No form change” and the Water uptake [1] was “about 1.0%”. The “Crystal modification” value ([2]; PS1: IPA) was “Compound V Pattern 2”, the “Crystal modification” value ([2]; PS2: Heptanes) was “Compound III Pattern 2” and the “Crystal modification” value ([2]; PS3: Water) was “Compound III Pattern 3”. The “Crystal modification” value ([2]; PS4: ACN) was “Compound III Pattern 4”, the “Crystal modification” value ([2]; PS5: MEK) was “Compound III Pattern 5” and the “Crystal modification” value ([2]; PS7: IPA/heptanes (3/10, v/v)) was “Compound III Pattern 2”. For the same compound, the “Crystal modification” value ([2]; PS8: water/ACN (2.9/97.1, v/v)) was “Compound III Pattern 4”, the “Crystal modification” value ([2]; PS9: IPA/MTBE (1/3, v/v)) was “Compound III Pattern 6” and the “Crystal modification” value ([2]; PS10: EA/toluene (1/3, v/v)) was “Compound III Pattern 2”. The “Stability after exposure to the three conditions” value [3] was “good physical stability”, the Degradation product increase ([3]; 40° C./75% RH in an open container) was 1.6% and the Degradation product increase ([3]; 60° C. in a tight container) was 1.5%. The “Bulk (XRPD)” value [3, 5] was “No form change”, the Color [3, 5] was “No change” and the “Purity, Bulk (HPLC)” value [3, 5] was 98.7%. The “Bulk (XRPD)” value [3, 6] was “No form change (One”, the Color [3, 6] was “No change” and the “Purity, Bulk (HPLC)” value [3, 6] was 97.2%. For the same compound, the “Bulk (XRPD)” value [3, 7] was “No form change (One”, the Color [3, 7] was “No change” and the “Purity, Bulk (HPLC)” value [3, 7] was 97.3%. For the same compound, the “Initial HPLC purity” value [3] was 98.8%, the “Solubility 0.5 hours” value [4, 8] was >2000 µg/mL and the “Solubility 2 hours” value [4, 8] was > 2000 µg/mL. For the same compound, the “pH of solution, 2 hours” value [4, 8] was 2.83, the “Solubility 0.5 hours” value [4, 9] was >2000 µg/mL and the “Solubility 2 hours” value [4, 9] was > 2000 µg/mL. The “pH of solution, 2 hours” value [4, 9] was 4.12, the “Solubility 0.5 hours” value [4, 10] was >2000 µg/mL and the “Solubility 2 hours” value [4, 10] was > 2000 µg/mL. The “pH of solution, 2 hours” value [4, 10] was 6.44, the “Solubility 0.5 hours” value ([4]; ES4: Water) was >2000 µg/mL and the “Solubility 2 hours” value ([4]; ES4: Water) was > 2000 µg/mL. The “pH of solution, 2 hours” value ([4]; ES4: Water) was 2.78, the “Solubility 0.5 hours” value [4, 11] was >2000 µg/mL and the “Solubility 2 hours” value [4, 11] was > 2000 µg/mL. For the same compound, the “pH of solution, 2 hours” value [4, 11] was 5.37.
